Experimental data reported in patent US20220396604A1, “COMPOSITIONS COMPRISING MODIFIED SMARCB1 AND USES THEREOF” (Dana-Farber Cancer Institute, Inc., priority 2019, published 2022).

System: mononucleosomes
Assay: LANA peptide competition
Format: binding
Experimental: The LANA peptide competition was set up in a similar manner as the peptide pull-down experiments with the following exceptions: SMARCB1-CC (aa 351-385) biotin-labeled peptides at 10 μM in EB150 were bound to Streptavidin Dynabeads® (Pierce™ Streptavidin Magnetic Beads, Thermo Scientific) in parallel to […] of mononucleosomes incubated with LANA peptide (KE Biochem) at varying concentrations ranging from 0-30 μM overnight at 4° C. Beads were washed 3 times in EB150, and resuspended with the mononucleosome/LANA peptide solutions. The suspension was rotated for 3-5 hours at 4° C. The beads were washed 3-5 times in EB150, and eluted in Sample Buffer (2×LDS with 200 mM DTT) to load onto […] Tricine gels.

MAPPGMRLRSGRSTGAPLTRGSC [LANA Peptide]
antagonism of SMARCB1 CC domain-nucleosome interaction in competition experiments: only partially antagonized
changes in SMARCB1 C-terminal domain peptide-nucleosome binding in LANA peptide competition (1-20 uM concentration gradient, visualization of H3): minimal changes
